Four compounds from ChEMBL document CHEMBL3351259, “Semi-synthesis of biologically active nisin hybrids composed of the native lanthionine ABC-fragment and a cross-stapled synthetic DE-fragment” (2014) can be followed below.

One assay concerns Bacillus subtilis. Nature of the assay: Antimicrobial activity against Bacillus subtilis assessed as inhibition of bacterial growth after 24 hrs by broth micro-dilution assay. It is filed as functional. (In general: Dilution methods test growth across graded concentrations, often in twofold steps.)
Assay [1] can be described thus: Induction of membrane leakage in large unilamellar vesicles composed of 1,2-dioleoyl-sn-glycero-3-phosphocholine and 0.2% lipid II […] at 5 uM by carboxyfluorescein based fluorescence spectroscopy. It is filed as functional.
Assay [2] in a line: Binding affinity affinity to lipid II (unknown origin) by nisin competitive assay.

In brackets after ≈: the same amount, converted by molar mass. Activity calls are given as the source filed them. The rule behind the calls is not given here.

For `C=C1NC(=O)[C@H]([C@@H](C)CC)NC(=O)[C@@H](NC(=O)/C(=C/C)NC(=O)[C@@H](N)[C@@H](C)CC)CSC[C@@H](C(=O)N[C@@H]2C(=O)N3CCC[C@H]3C(=O)NCC(=O)N[C@H](C(=O)N[C@@H](CCCCN)C(N)=O)CS[C@H]2C)NC(=O)[C@H](CC(C)C)NC1=O`, the MIC in the assay with Bacillus subtilis came to 167 µM (≈ 192 µg/mL). Besides, in assay [1], the outcome was inactive.
Regarding `C=C1NC(=O)[C@H]([C@@H](C)CC)NC(=O)[C@@H](NC(=O)/C(=C/C)NC(=O)[C@@H](N)[C@@H](C)CC)CSC[C@@H](C(=O)N[C@@H]2C(=O)N3CCC[C@H]3C(=O)NCC(=O)N[C@H](C(=O)N[C@@H](CCCCN)C(=O)N[C@@H]3C(=O)NCC(=O)N[C@@H](C)C(=O)N[C@@H](CC(C)C)C(=O)N[C@@H](CCSC)C(=O)NCC(=O)N[C@H](C(=O)N[C@@H](CC(N)=O)C(=O)NCc4cn([C@@H](CCCCN)C(=O)N[C@@H]5C/C=C/C[C@@H]6NC(=O)[C@@H](C/C=C/C[C@@H](C(=O)OC)NC(=O)[C@H](CC(N)=O)NC6=O)NC(=O)[C@H](C)NC5=O)nn4)CS[C@H]3C)CS[C@H]2C)NC(=O)[C@H](CC(C)C)NC1=O`, the result in assay [1] was inactive. The outcome in assay [2] was Active.
With `C=C1NC(=O)[C@H]([C@@H](C)CC)NC(=O)[C@@H](NC(=O)/C(=C/C)NC(=O)[C@@H](N)[C@@H](C)CC)CSC[C@@H](C(=O)N[C@@H]2C(=O)N3CCC[C@H]3C(=O)NCC(=O)N[C@H](C(=O)N[C@@H](CCCCN)C(=O)N[C@@H]3C(=O)NCC(=O)N[C@@H](C)C(=O)N[C@@H](CC(C)C)C(=O)N[C@@H](CCSC)C(=O)NCC(=O)N[C@H](C(=O)N[C@@H](CC(N)=O)C(=O)O)CS[C@H]3C)CS[C@H]2C)NC(=O)[C@H](CC(C)C)NC1=O`, the MIC in the assay on Bacillus subtilis turned out to be 6.2 µM (≈ 11.7 µg/mL). Besides, the result in assay [1] was inactive. In addition, the outcome in assay [2] was Active.
For `C=C1NC(=O)[C@H]([C@@H](C)CC)NC(=O)[C@@H](NC(=O)/C(=C/C)NC(=O)[C@@H](N)[C@@H](C)CC)CSC[C@@H](C(=O)N[C@@H]2C(=O)N3CCC[C@H]3C(=O)NCC(=O)N[C@H](C(=O)N[C@@H](CCCCN)C(=O)N[C@@H]3C(=O)NCC(=O)N[C@@H](C)C(=O)N[C@@H](CC(C)C)C(=O)N[C@@H](CCSC)C(=O)NCC(=O)N[C@H](C(=O)N[C@@H](CC(N)=O)C(=O)N[C@@H](CC(C)C)c4cn([C@@H](CCCCN)C(=O)N[C@@H]5C/C=C/C[C@@H]6NC(=O)[C@@H](C/C=C/C[C@@H](C(=O)N[C@@H](CCCCC)C(=O)NC)NC(=O)[C@H](CC(N)=O)NC6=O)NC(=O)[C@H](C)NC5=O)nn4)CS[C@H]3C)CS[C@H]2C)NC(=O)[C@H](CC(C)C)NC1=O`, the MIC in the assay on Bacillus subtilis stood at 4.07 µM (≈ 11.4 µg/mL). Besides, the outcome in assay [1] was inactive.

For orientation: MIC means the least concentration at which growth counts as inhibited.
